Data set [1] relates to NaH2PO4 loaded mice. In words: Inhibitory effect on the elevation of serum phosphate levels in NaH2PO4 loaded mice. The class given is in vivo. The settings on record: Mus musculus; male ddY mice, oral, compound 0.5 hours before oral NaH2PO4 load; serum phosphate AUC up to 4 hours. Here is the method:
EVALUATION OF INHIBITORY EFFECT ON THE ELEVATION OF SERUM PHOSPHATE LEVELS 1N NaH2PO4 LOADED MICE Male ddY mice, aged 6-7 weeks, were fasted overnight and used as 6 mice/group. The compounds suspended in 0.5% methylcellulose were administered orally at a dose of 100 or 300 mg/10 mL/kg. After 0.5 hours, 50 mg/300 uL/mouse of NaH2PO4 solution was administered orally. Blood samples were taken from retro-orbital venousplexus of the mice before administration of the compounds and 0.5, 1, 2 and 4 hours after the NaH2PO4 administration, and serum phosphate concentration was measured using phospha C-test Wako kit (Wako pure chemicals Co. Ctd.). The area under the serum phosphate concentration-time curve (AUC) up to 4 hours after administration of NaH2PO4 was calculated and the inhibitory effect of serum phosphate levels was evaluated.

Data set [2] relates to Human alkaline phosphatase. In words: Stability test against human alkaline phosphatase. The settings on record: for amount of compound (HPLC) after incubation with human alkaline phosphatase: 2 U/mL enzyme, 0.1 M carbonate buffer, 37° C. Type of data set: in vitro ADME. As to the method:
Compound 42 or 2′-PP was dissolved in dimethyl sulfoxide and the concentration was adjusted to 1×10^−2 M. […] The amounts of each compound were measured by the HPLC method (HPLC condition, column: Inertsil ODS-2, eluent: 10 mM phosphate buffer/CH3CN=8/2, wavelength: 230 nm, flow rate: 1 mL/min).

The molecule `CSc1ccc(Cc2ccc(C(=O)P(=O)(O)O)s2)cc1` [Compound 73, [5-(4-Methylthiobenzyl)thiophen-2-carbonyl]phosphonic acid] yielded an ED30 in data set [1] of 4.5 mg/kg.

In data set [1], `O=C(c1ccc(O)c(Cc2cc3ccccc3s2)c1)P(=O)(O)O` [Compound 54, [3-(Benzo[b]thiophen-2-ylmethyl)-4-hydroxybenzoyl]phosphonic acid] had an ED30 of 13.9 mg/kg.

Molecule `CSc1ccc(Cc2cc(C(=O)P(=O)(O)O)ccc2OCCO)cc1` [Compound 60, [4-(2-Hydroxyethoxy)-3-(4-methylthiobenzyl)benzoyl]phosphonic acid] yielded an ED30 in data set [1] of 12.1 mg/kg.

Regarding `O=C(CCc1ccc(O)cc1)c1c(O)cc(O)cc1OP(=O)(O)O` [reference compound], the amount of compound (HPLC) after incubation with human alkaline phosphatase in data set [2] (Time 0 hr) is 100%; in data set [2] (Time 0.25 hr), 31.4%; in data set [2] (Time 0.5 hr) it was 21.4%; in data set [2] (Time 1 hr), 16.3%; in data set [2] (Time 2 hr), 1.2%.

In data set [1], `CCCOc1ccc(Cc2cc(C(=O)P(=O)(O)O)ccc2O)cc1` [Compound 45, [4-Hydroxy-3-(4-n-propoxybenzyl)benzoyl]phosphonic acid] gave an ED30 of 20.1 mg/kg.

Regarding `CC(C)Oc1ccc(Cc2cc(C(=O)P(=O)(O)O)ccc2O)cc1` [Compound 46, [4-Hydroxy-3-(4-i-propoxybenzyl)benzoyl]phosphonic acid], in data set [1], the ED30 turned out to be 16.3 mg/kg.

Turning to `CCOc1ccc(Cc2cc(CP(=O)(O)O)ccc2O)cc1` [Compound 20, [3-(4-Ethoxybenzyl)-4-hydroxybenzyl]phosphonic acid], the ED30 in data set [1] stood at 244 mg/kg.

In the case of `O=C(c1ccc(O)c(Cc2ccc(Oc3ccccc3)cc2)c1)P(=O)(O)O` [Compound 49, [4-Hydroxy-3-(4-phenoxybenzyl)benzoyl]phosphonic acid], in data set [1], the ED30 turned out to be 17.8 mg/kg.

Take `CCOc1ccc(Cc2ccc(C(=O)P(=O)(O)O)s2)cc1` [Compound 70, [5-(4-Ethoxybenzyl)thiophen-2-carbonyl]phosphonic acid]: the ED30 in data set [1] amounted to 20.3 mg/kg.

The molecule `CCOc1ccc(Cc2cc(C(=O)P(=O)(O)O)ccc2O)cc1` [Compound 38, [3-(4-Ethoxybenzyl)-4-hydroxybenzoyl]phosphonic acid] showed an ED30 in data set [1] of 44.5 mg/kg.

Turning to `CCOc1ccc(Cc2ccc(P(=O)(O)O)s2)cc1` [Compound 64, 5-(4-Ethoxybenzyl)-2-thiophenephosphonic acid], the ED30 in data set [1] amounted to 165 mg/kg.

The molecule `O=C(c1ccc(Cc2ccc(Cl)cc2)s1)P(=O)(O)O` [Compound 75, [5-(4-Chlorobenzyl)thiophen-2-carbonyl]phosphonic acid] registered an ED30 in data set [1] of 25.6 mg/kg.

On to `CSc1ccc(Cc2cc(C(=O)P(=O)(O)O)ccc2O)cc1` [Compound 42, [4-Hydroxy-3-(4-methylthiobenzyl)benzoyl]phosphonic acid], for which the amount of compound (HPLC) after incubation with human alkaline phosphatase is 100% in data set [2] (Time 0 hr); 96.3% in data set [2] (Time 0.25 hr); 96% in data set [2] (Time 0.5 hr); 95.8% in data set [2] (Time 1 hr); 95.5% in data set [2] (Time 2 hr). Moreover, in data set [2] (conclusion from Table 1), the “stability against human alkaline phosphatase (in words)” value was “stable”. Moreover, the ED30 in data set [1] turned out to be 33.3 mg/kg.

`CCSc1ccc(Cc2ccc(C(=O)P(=O)(O)O)s2)cc1` [Compound 76, [5-(4-Ethylthiobenzyl)thiophen-2-carbonyl]phosphonic acid] had an ED30 in data set [1] of 2 mg/kg.

Consider `CCCCCCCCCCCCCOc1ccc(Cc2ccc(C(=O)P(=O)(O)O)s2)cc1` [Compound 83, [5-(4-n-Tridecanyloxybenzyl)thiophen-2-carbonyl]phosphonic acid], for which the ED30 in data set [1] turned out to be 10.7 mg/kg.

The molecule `CCOc1ccc(Cc2cc(C(=O)P(=O)(O)O)ccc2OCCO)cc1` [Compound 57, [3-(4-Ethoxybenzyl)-4-(2-hydroxyethoxy)benzoyl]phosphonic acid] showed an ED30 in data set [1] of 30.9 mg/kg.

Consider `CCOc1ccc(Cc2ccc(CP(=O)(O)O)s2)cc1` [Compound 65, [5-(4-Ethoxybenzyl)thiophen-2-ylmethyl]phosphonic acid], for which the ED30 in data set [1] turned out to be 256 mg/kg.
